The assay deals with T1, polyphenol oxidase (PPO), crude PPO extract of Hass avocado pulp.
T1 construct: isoenzyme not identified
Kind of assay: absorbance at […] nm, Lineweaver-Burk. The following applies: phosphate buffer pH 7.0, catechol 2.7-44.5 mM, also printed as 0.1627 g/L, no inhibitor. The format is biochemical, Persea americana.

Each structure is given as a SMILES string.

A word on the Km: it is the substrate concentration at which the rate is half of its maximum. Consider `Oc1ccccc1O` [catechol], for which the Km is 1480 µM.

Values taken from paper PMC11874750, “Inhibitory effect of fermented avocado seed extract (Persea americana Mill. cv. Hass) on polyphenol oxidase and its application as anti-browning agent in avocado, apple, and banana pulps” (Heliyon, 2025).
